In US20140134169A1, “Methods of Treating Ovarian Cancer with Dll4 Antagonists” (Regeneron Pharmaceuticals, Inc., priority 2012, published 2014):

Legend:
[1] = test system: human A549 tumor cells (non-small cell lung cancer); assay: Growth of human A549 tumors implanted in humanized Dll4 SCID mice; type: in vivo
Description: (§1) Tumor growth delay, TGD, was assessed as the difference in days between treated (T) versus control (C) tumors when each cohort reached a specified tumor size. The predetermined tumor size for this experiment was 600 mm^3.
Each mouse was implanted subcutaneously (sc) with 5×10^6 human A549 tumor cells (non-small cell lung cancer or “NSCLC”). […] A total of 36 mice were divided into 6 groups (n=6 per cohort). The first group was treated sc with hFc at 2 mg/kg; the second group was treated sc with REGN421 at 2 mg/kg; the third and fourth groups were treated ip with cisplatin at 2.5 and 4.5 mg/kg, respectively; the fifth group was treated sc with REGN421 at 2 mg/kg and ip with cisplatin at 2.5 mg/kg; and the sixth group was treated sc with REGN421 at 2 mg/kg and ip with cisplatin at 4.5 mg/kg. REGN421 was administered every 3-4 days starting on day 29 and mice received three doses total. Cisplatin was administered every 24 hours starting on day 29 and mice received two doses total.
To assess the effects of REGN421 and cisplatin as single agents or in combination we measured tumor size (volume), beginning three days before the initial REGN421 treatment, on the day of each agent treatment (days 29, 30, 33, 36) and thereafter every 3-4 days until tumors reached ˜600 mm^3 in size.

[2] = test system: human VM-Cub1 tumor cells (bladder carcinoma cells); assay: Growth of human VM-Cub1 tumors implanted in humanized Dll4 SCID mice; type: in vivo; conditions: for TGI(%): day 32; for TGD: to 600 mm3
Description: The humanized Dll4 SCID mouse was made by replacing the entire extracellular domain of the mouse Dll4 gene with the corresponding extracellular region of the human Dll4 gene (7 kb) in embryonic stem (ES) cells. Homozygous hDll4 mice were generated and bred into SCID background.
A total of 45 mice were divided into nine groups (n=5 per cohort). The first group was treated subcutaneously (sc) with hFc at 2 mg/kg; the second and third groups were treated sc with REGN421 at 0.5 and 2 mg/kg, respectively; the fourth and fifth groups were treated intraperitoneally (ip) with cisplatin at 0.5 and 2 mg/kg, respectively; the sixth group was treated sc with REGN421 at 0.5 mg/kg and ip with cisplatin at 0.5 mg/kg; the seventh group was treated sc with REGN421 at 0.5 mg/kg and ip with cisplatin at 2 mg/kg; the eighth group was treated sc with REGN421 at 2 mg/kg and ip with cisplatin at 0.5 mg/kg; and the ninth group was treated sc with REGN421 at 2 mg/kg and ip with cisplatin at 2 mg/kg. REGN421 was administered every 3-4 days starting on day 14 and mice received three doses total. Cisplatin was administered every 24 hours starting on day 14; mice received four doses total.
To assess the effects of REGN421 and cisplatin as single agents or in combination treatments, the changes in tumor size were recorded. Tumor growth was measured three days before the initial REGN421 treatment, on the day of each REGN421 treatment (days 14, 17 and 21) and thereafter every 3-4 days until tumors reached ˜600 mm3 in size. In vivo tumor size was calculated using the formula (length×width2)/2 (FIG. 1 and Table 1).
Tumor Growth Inhibition, TGI, was determined by calculating the difference in tumor size for treated (T) versus vehicle control (C) tumor at the day the control cohort was euthanized (i.e., at day 32); TGI=[1−(Tfinal−Tinitial)/(Cfinal−Cinitial)]×100.
as §1

human HCT116 tumor cells = assay: Growth of human HCT116 tumors in humanized Dll4 SCID mice (irinotecan study); type: in vivo
Description: (§2) Each mouse was implanted subcutaneously (sc) with 5×10^6 human HCT116 tumor cells. […] The mice were then treated with hFc, REGN421, irinotecan or combination of REGN421 and irinotecan. A total of 30 mice were divided into 6 groups (n=5 per cohort). The first group was treated sc with hFc at 2 mg/kg; the second group was treated sc with REGN421 at 2 mg/kg; the third and fourth groups were treated ip with irinotecan at 7.5 and 25 mg/kg, respectively; the fifth group was treated sc with REGN421 at 2 mg/kg and ip with irinotecan at 7.5 mg/kg; and the sixth group was treated sc with REGN421 at 2 mg/kg and ip with irinotecan at 25 mg/kg. REGN421 was administered every 3-4 days starting on day 15 and mice received three doses total. Irinotecan was administered every 3-4 days starting on day 15 and mice received three doses total.
(§3) To assess the effects of REGN421 and irinotecan as single agents or in combination treatments, the changes in tumor size (volume) are measured, starting three days before the initial REGN421 treatment, and then on the day of each agent treatment (days 15, 19, 22) and thereafter every 3-4 days until tumors reach ˜600 mm^3 in size. In vivo tumor size is calculated using the formula (length×width^2)/2.

A2780 cells = assay: A2780 ovarian xenograft (intraperitoneal) tumor growth inhibition; type: in vivo, human; conditions: SCID mice (native murine Dll4); REGN421 2.5 mg/kg 1x/week, mDll4Ab1 5 mg/kg 1x/week, VEGF-Trap 10 mg/kg 2x/week
Description: Ovarian tumor xenograft cells were implanted into humanized Dll4 SCID mice or vendor SCID mice (i.e., SCID mice expressing native murine Dll4). After implantation, mice were treated with REGN421 (anti-human Dll4 antibody, binds to human Dll4), mDll4Ab1 (anti-murine Dll4 antibody, binds to murine Dll4), or a human Fc domain control protein. In one study, mice were treated with VEGF-Trap, mDll4Ab1 or VEGF-Trap plus mDll4Ab1. TOV-112D cells (5×10^6) were implanted subcutaneously into the right flank of humanized Dll4 (n=4) or vendor SCID mice (n=7). Treatment with REGN421 (2.5 mg/kg, 1×/week) or mDll4Ab1 (5 mg/kg, 1×/week) vs. hFc control was initiated one week after tumor cell implantation. Animals were treated for 2 to 3 weeks. A2780 cells (2×10^6) were implanted intraperitoneally into humanized Dll4 or vendor SCID mice (n=4-5). Treatment with REGN421 (2.5 mg/kg, 1×/week) or mDll4Ab1 (5 mg/kg, 1×/week) vs. hFc control was initiated one week after tumor cell implantation. For the A2780 combination study, simultaneous treatment with mDll4Ab1 (5 mg/kg, 1×/week) and VEGF-Trap (10 mg/kg, 2×/week) was initiated one week after tumor cell implantation. A VEGF-Trap single treatment arm was included in this study. Animals bearing A2780 tumors were treated for 4-5 weeks. SKOV-3 cells (5×10^6) in matrigel were implanted subcutaneously and tumor-bearing animals (n=10) were dosed with REGN421 (2.5 mg/kg) and mDll4Ab1 (5 mg/kg) once weekly. OVCAR-3 cells (1×10^7) were implanted subcutaneously into the right flank of vendor SCID mice (n=7). Treatment with mDll4Ab1 (5 mg/kg 1×/week) vs. hFc control was initiated 66 days after tumor cell implantation. Animals were treated for a total of 5 weeks. Tumor growth inhibition (TGI) was measured as detailed above.

[3] = test system: human HCT116 tumor cells (CRC); assay: Growth of human HCT116 tumors in humanized Dll4 SCID mice (5-FU study); type: in vivo
Description: as §2, with “cells (CRC).” for “cells.”, “5-FU” for “irinotecan”, “5-FU.” for “irinotecan.”, “15” for “7.5”, “22” for “15”, “5-FU” for “Irinotecan”
as §3, with “5-FU” for “irinotecan”, “combination,” for “combination treatments,”, “were” for “are”, “beginning” for “starting”, “22, 26, 29)” for “15, 19, 22)”, “(length×width^2)/2 (FIG. 3 and Table 5).” for “(length×width^2)/2.”

[4] = test system: human MDA-MB-231 breast tumor cells; assay: Growth of human MDA-MB-231 breast tumors implanted in SCID mice
Description: The effect of anti-Dll4 antibody in combination with docetaxel (TAXOTERE®, sanofi-aventis) on tumor growth was evaluated on tumors implanted in Severe Combined Immunodeficiency (SCID) mice. […] After the tumors were established in the mice (tumor size of ˜150-200 mm^3, approximately 45 days after implantation), mice were treated with hFc, docetaxel, Dll4 antibody, or a combination of docetaxel plus Dll4 antibody. A total of 25 tumor-bearing male mice were randomized into five groups (N=5 mice per group). […] Docetaxel and/or Dll4 antibody were administered on the same day. Animals were treated 2 times per week and received a total of 3 doses. Starting from the day of initial treatment, body weight and tumors were measured twice a week until the mice are euthanized. Mice were euthanized when tumors reached ˜600 mm^3 in size. Tumor size was calculated using the formula (length×width^2)/2.
The control tumors reached ˜600 mm^3 and were harvested on day 63.

[5] = test system: rat C6 tumor cells (glioblastoma cells); assay: Growth of rat C6 tumors implanted in SCID mice; type: in vivo
Description: Each mouse was implanted subcutaneously (sc) with 1×10^6 rat C6 tumor cells (glioblastoma cells). […] Since these mice expressed mouse Dll4, the Dll4 Ab used in this experiment was prepared in-house, based on the published sequence (WO 2007/143689), and designated as REGN577. […] A total of 30 tumor-bearing male mice were randomized into six groups (N=5). […] Tumor size was calculated using the formula, (length×width2)/2.
TGI and TGD were determined (Table 3).

[6] = cisplatin 2.5 mg/kg ip (5 mg/kg total)
[7] = cisplatin 4.5 mg/kg ip (9 mg/kg total)
[8] = irinotecan 7.5 mg/kg ip (22.5 mg/kg total)
[9] = irinotecan 25 mg/kg ip (75 mg/kg total)
[10] = 5-FU 15 mg/kg ip (45 mg/kg total)
[11] = 5-FU 25 mg/kg ip (75 mg/kg total)
[12] = docetaxel 4.5 mg/kg iv (13.5 mg/kg total)
[13] = docetaxel 6 mg/kg iv (18 mg/kg total)

Compound: N.N.[Cl][Pt][Cl] [Cisplatin, cis-diamminedichloroplatinum]
- TGD [1, 6]: 4 days
- TGI (%) at Day 57 [1, 6]: 35%
- TGD [1, 7]: 11 days
- TGI (%) at Day 57 [1, 7]: 22%
- Euthanized ([2]; cisplatin 0.5 mg/kg/dose ip x4): 45 days
- TGI(%) ([2]; cisplatin 0.5 mg/kg/dose ip x4): 60.7%
- TGI(%) ([2]; cisplatin 0.5 mg/kg/dose ip x4, listed as cisplatin): 61%
- TGD ([2]; cisplatin 0.5 mg/kg/dose ip x4): 13 days
- Euthanized ([2]; cisplatin 2 mg/kg/dose ip x4): 41 days
- TGI(%) ([2]; cisplatin 2 mg/kg/dose ip x4): 53.8%
- TGI(%) ([2]; cisplatin 2 mg/kg/dose ip x4, listed as cisplatin): 54%
- TGD ([2]; cisplatin 2 mg/kg/dose ip x4): 9 days

Compound: CCc1c2c(nc3ccc(OC(=O)N4CCC(N5CCCCC5)CC4)cc13)-c1cc3c(c(=O)n1C2)COC(=O)[C@]3(O)CC [Irinotecan, irinotecan]
- TGD (human HCT116 tumor cells; [8]): 8 days
- TGI(%) at Day 39 (human HCT116 tumor cells; [8]): 71.2%
- TGD (human HCT116 tumor cells; [9]): 16 days
- TGI(%) at Day 39 (human HCT116 tumor cells; [9]): 100.5%

Compound: VEGF-Trap: VEGF receptor-based chimeric molecule, SEQ ID NO:121 [reference compound]
- % TGI (A2780 cells): 88%

Compound: O=c1[nH]cc(F)c(=O)[nH]1 [5-FU, 5-fluorouracil]
- TGD [3, 10]: 4 days
- TGI(%) at Day 39 [3, 10]: 5.6%
- TGD [3, 11]: 2 days
- TGI(%) at Day 39 [3, 11]: 0%

Compound: CC(=O)O[C@@]12CO[C@@H]1C[C@H](O)[C@@]1(C)C(=O)[C@H](O)C3=C(C)[C@@H](OC(=O)[C@H](O)[C@@H](NC(=O)OC(C)(C)C)c4ccccc4)C[C@@](O)([C@@H](OC(=O)c4ccccc4)[C@H]21)C3(C)C [Docetaxel, docetaxel]
- TGD [4, 12]: 4 days
- TGI(%) at Day 25 [4, 12]: 37%
- TGD [4, 13]: 4 days
- TGI(%) at Day 25 [4, 13]: 52%
- TGD [5, 12]: 6 days
- TGI(%) at Day 25 [5, 12]: 62%
- TGD [5, 13]: 7 days
- TGI(%) at Day 25 [5, 13]: 70%
